Test results published in article PMC10969960, “Novel Anthraquinone-Based Benzenesulfonamide Derivatives and Their Analogues as Potent Human Carbonic Anhydrase Inhibitors with Antitumor Activity: Synthesis, Biological Evaluation, and In Silico Analysis” (International Journal of Molecular Sciences, 2024).
Where two headings read alike, the source gives them in different places.

What was measured:
hCA II = target: T1, hCA II (Homo sapiens, UniProt P00918); experiment: CA inhibition assay, 4-nitrophenyl acetate (4-NPA) esterase assay; assay type: biochemical; conditions: errors ±5–10% of the reported values
T1 construct: purchased Shanghai Jining Biological
Method: (§5) The inhibitory activity was evaluated by monitoring the hydrolysis of 4-nitrophenylacetate (4-NPA.).
(§6) Therefore, according to the method described by Verpoorte previously [32], 4-NPA was catalyzed into 4-nitrophenol for the determination of CA activity.
(§7) The substrate (4-NPA) was dissolved in DMSO at a substrate concentration of 1 mM. Standard hCAs II and IX (acquired from Shanghai Jining Biological) were diluted to the indicated concentrations with assay buffer and added to the cells. Different concentrations of inhibitors were added to the cells, followed by incubation at room temperature for 15 min to form complexes of inhibitors and enzymes (E-I). Then, 100 μL of E-I complex and 900 μL of substrate were successively added to a 1 mL glass cuvette and mixed immediately. […] At the same time, the non-enzymatic hydrolysis rate was determined by a blank control test. Standard hCAs II and IX were diluted to final concentrations of 1.5 ng/μL and 5 ng/μL, respectively [26, 35]. The FORECAST (x, known-y’s, known-x’s) command of Excel was used to return a predicted value through the linear regression equation to calculate the IC50 values. The experiments were repeated three times for each inhibitor concentration.

hCA IX = target: T2, hCA IX (Homo sapiens, UniProt Q16790); experiment: as above; assay type: biochemical; conditions: errors ±5–10% of the reported values
T2 construct: purchased Shanghai Jining Biological
Method: as §5, §6, §7

HepG2 cancer cells = experiment: MTT anti-proliferative assay; assay type: cell-based; conditions: Homo sapiens, 24 h
Method: (§8) The median growth-inhibitory concentration (IC50) in the treated cells was compared to that of untreated controls. Cells were cultured under normoxic and hypoxic conditions to evaluate the effects of the compounds on cancer cell viability.
(§9) The cell cultures were passaged once every 2–3 days.
(§10) The 3-(4,5-dimethylthiazol-2-yl)-2,5-diphenyltetrazolium bromide (MTT) assay was used to measure the cell viability. Cells were planted into 96-well plates (4 × 10^3 cells per well) and cultured in media containing different concentrations of compounds. […] The supernatant was then discarded, and 150 μL of DMSO was added to each well, followed by gentle shaking. The absorbance value at 570 nm was measured using an EL808 microplate reader (Bio-TEK Instrument, Winooski, VT, USA).

HepG2 cell line = experiment: Mitochondrial membrane potential assay (JC-1 staining); assay type: cell-based; conditions: HepG2, 20 μM, 48 h
Method: (§1) The present study investigated the involvement of mitochondria in compound-5-induced apoptosis by JC-1 staining. Red fluorescence indicates JC-1 aggregates, and green fluorescence indicates membrane potential leading to an increase in JC-1 monomers.
(§2) A mitochondrial membrane potential assay kit (Beyotime Co., Nantong, China) was used to measure the mitochondrial membrane potential with a JC-1 fluorescent probe. […] The cells were then fixed with 4% paraformaldehyde and stained with 5 mg/L JC-1 at 37 °C for 1 h. Fluorescent images were acquired using a fluorescence microscope (Olympus IX81, Olympus, Tokyo, Japan).

MDA-MB-231 cell line = experiment: as above; assay type: cell-based; conditions: MDA-MB-231, 20 μM, 48 h
Method: as §1, §2

MCF-7 cell line = experiment: as above; assay type: cell-based; conditions: MCF-7, 20 μM, 48 h
Method: as §1, §2

MDA-MB-231 cells = experiment: Annexin V-FITC/propidium iodide analysis of apoptosis; assay type: cell-based; conditions: MDA-MB-231, 24 h incubation
Method: (§3) Annexin V-FITC/propidium iodide analysis of apoptosis assays were conducted to evaluate the effect of 5c on apoptosis in the MDA-MB-231, MCF-7, and HepG2 cancer cell lines. As shown in Table 3 and Figure 4, a significant increase in the percentage of apoptotic cells (containing early and late apoptosis percentages) and a notable decrease in cell viability were observed after incubation with compound 5c for 24 h.
(§4) Cells were cultured in 6-well plates and treated with the compounds for 24 h. Approximately 1 × 10^5 cells were collected and suspended in binding buffer. Apoptosis was analyzed using an AV/PI apoptosis detection kit (Beyotime Institute of Biotechnology, Shanghai, China) with a flow cytometer (BD Bioscience, Franklin Lakes, NJ, USA).

MCF-7 cells = experiment: as above; assay type: cell-based; conditions: MCF-7, 24 h incubation
Method: as §3, §4

HepG2 cells = experiment: as above; assay type: cell-based; conditions: HepG2, 24 h incubation
Method: as §3, §4

MCF-7 cancer cells = experiment: MTT anti-proliferative assay; assay type: cell-based; conditions: Homo sapiens, MCF7, 24 h
Method: as §8, §9, §10

MDA-MB-231 cancer cells = experiment: MTT anti-proliferative assay; assay type: cell-based; conditions: Homo sapiens, 24 h
Method: as §8, §9, §10

[1] = hypoxic (0.5% O2), read-out: IC50 HepG2 Hypo
[2] = normoxic, read-out: IC50 HepG2 Normo
[3] = hypoxic (0.5% O2), read-out: IC50 MCF-7 Hypo
[4] = normoxic, read-out: IC50 MCF-7 Normo
[5] = hypoxic (0.5% O2), read-out: IC50 MDA-MB-231 Hypo
[6] = normoxic, read-out: IC50 MDA-MB-231 Normo

Row | Structure (SMILES) | melting point [°C] | IC50 (hCA II) [nM] | IC50 (hCA IX) [nM] | other results
1 | O=C(O)c1ccc(NC(=S)NC(=O)c2ccc3c(c2)C(=O)c2ccccc2C3=O)cc1 [Compound 5a, (3-(9,10-Dioxo-9,10-Dihydroanthracene-2-Carbonyl) Thioureido) Benzoic Acid] | 221 to 221.4 | 113 | 217 | –
2 | O=C(O)c1cccc(NC(=S)NC(=O)c2ccc3c(c2)C(=O)c2ccccc2C3=O)c1 [Compound 5b, 3-(3-(9,10-Dioxo-9,10-Dihydroanthracene-2-Carbonyl) Thioureido) Benzoic Acid] | – | 135 | 254 | –
3 | NS(=O)(=O)c1ccc(NC(=S)NC(=O)c2ccc3c(c2)C(=O)c2ccccc2C3=O)cc1 [Compound 5c, 9,10-Dioxo-N-((4-Sulfamoylphenyl)Carbamothioyl)-9,10-Dihydroanthracene-2-Carboxamide] | – | 41.6 | 40.6 | IC50 (HepG2 cancer cells; [1]): 69400 ± 5160 nM; IC50 (HepG2 cancer cells; [2]): 61400 ± 5750 nM; mitochondrial membrane potential (HepG2 cell line): reduction in mitochondrial membrane potential; mitochondrial membrane potential (MDA-MB-231 cell line): reduction in mitochondrial membrane potential; mitochondrial membrane potential (MCF-7 cell line): reduction in mitochondrial membrane potential; Cell Viability (Lower Left %) (MDA-MB-231 cells): 68.88 ± 2.30%; Total Apoptosis (L.R% + U.R%) (MDA-MB-231 cells): 27.26 ± 1.76%; Cell Viability (Lower Left %) (MCF-7 cells): 51.77 ± 2.80%; Total Apoptosis (L.R% + U.R%) (MCF-7 cells): 43.37 ± 3.92%; Cell Viability (Lower Left %) (HepG2 cells): 70.12 ± 2.84%; Total Apoptosis (L.R% + U.R%) (HepG2 cells): 25.06 ± 2.01%; IC50 (MCF-7 cancer cells; [3]): 28100 ± 1720 nM; IC50 (MCF-7 cancer cells; [4]): 34300 ± 2850 nM; IC50 (MDA-MB-231 cancer cells; [5]): 46200 ± 3930 nM; IC50 (MDA-MB-231 cancer cells; [6]): 48100 ± 3230 nM
4 | NS(=O)(=O)c1cccc(NC(=S)NC(=O)c2ccc3c(c2)C(=O)c2ccccc2C3=O)c1 [Compound 5d, 9,10-Dioxo-N-((3-Sulfamoylphenyl)Carbamothioyl)-9,10-Dihydroanthracene-2-Carboxamide] | 146.5 to 146.8 | 64.3 | 73.6 | –
5 | CC(=O)c1ccc(NC(=S)NC(=O)c2ccc3c(c2)C(=O)c2ccccc2C3=O)cc1 [Compound 5e, ((4-Acetylphenyl)Carbamothioyl)-9,10-Dioxo-9,10-Dihydroanthracene-2-Carboxamide] | 215 to 215.9 | 132 | 275 | –
6 | COC(=O)c1ccc(NC(=S)NC(=O)c2ccc3c(c2)C(=O)c2ccccc2C3=O)cc1 [Compound 5f, Methyl 4-(3-(9,10-Dioxo-9,10-Dihydroanthracene-2-Carbonyl)Thioureido)Benzoate] | 211 to 211.4 | 147 | 190 | –
7 | COC(=O)c1cccc(NC(=S)NC(=O)c2ccc3c(c2)C(=O)c2ccccc2C3=O)c1 [Compound 5g, Methyl 3-(3-(9,10-Dioxo-9,10-Dihydroanthracene-2-Carbonyl)Thioureido)Benzoate] | 187 to 187.3 | 238 | 251 | –
8 | NS(=O)(=O)c1ccc(CCNC(=S)NC(=O)c2ccc3c(c2)C(=O)c2ccccc2C3=O)cc1 [Compound 5h, 9,10-Mioxo-N-((4-Sulfamoylphenethyl)Carbamothioyl)-9,10-Dihydroanthracene-2-Carboxamide] | 323 to 323.5 | 21.2 | 46.2 | IC50 (HepG2 cancer cells; [1]): 80400 ± 7140 nM; IC50 (HepG2 cancer cells; [2]): 81400 ± 7030 nM; IC50 (MCF-7 cancer cells; [3]): 57400 ± 5500 nM; IC50 (MCF-7 cancer cells; [4]): 63800 ± 5570 nM; IC50 (MDA-MB-231 cancer cells; [5]): 81200 ± 7340 nM; IC50 (MDA-MB-231 cancer cells; [6]): 75200 ± 6810 nM
9 | CNS(=O)(=O)c1ccc(NC(=S)NC(=O)c2ccc3c(c2)C(=O)c2ccccc2C3=O)cc1 [Compound 5i, ((4-(N-Methylsulfamoyl)Phenyl)Carbamothioyl)-9,10-Anthraquinone-2-Carboxamide] | 207 to 207.6 | 76.7 | 100 | –
10 | O=C(NC(=S)Nc1ccc(S(=O)(=O)Nc2ncccn2)cc1)c1ccc2c(c1)C(=O)c1ccccc1C2=O [Compound 5j] | 237 to 237.2 | 87.7 | 77.7 | –
11 | CC(=O)NS(=O)(=O)c1ccc(NC(=S)NC(=O)c2ccc3c(c2)C(=O)c2ccccc2C3=O)cc1 [Compound 5k, ((4-(N-Acetylsulfamoyl)Phenyl)Carbamothioyl)-9,10-Dioxo-9,10-Dihydroanthracene-2-Carboxamide] | 192 to 192.4 | 156 | 227 | –
12 | O=C(NC(=S)Nc1ccc(S(=O)(=O)Nc2nccs2)cc1)c1ccc2c(c1)C(=O)c1ccccc1C2=O [Compound 5m, 9,10-Dioxo-N-((4-(N-(Thiazol-2-yl)Sulfamoyl)Phenyl)Carbamothioyl)-9,10-Dihydroanthracene-2-Carboxamide] | – | 95.9 | 71 | –
13 | N=C(N)NS(=O)(=O)c1ccc(NC(=S)NC(=O)c2ccc3c(c2)C(=O)c2ccccc2C3=O)cc1 [Compound 5n, ((4-(N-Carbamimidoylsulfamoyl)Phenyl)Carbamothioyl)-9,10-Dioxo-9,10-Dihydroanthracene-2-Carboxamide] | 206 to 206.5 | 98.4 | 103 | –
14 | O=C(O)c1ccc(NC(=O)c2ccc3c(c2)C(=O)c2ccccc2C3=O)cc1 [Compound 6a, 4-(9,10-Dioxo-9,10-Dihydroanthracene-2-Carboxamido)Benzoic Acid] | 338 to 338.5 | 296 | 194 | –
15 | O=C(O)c1cccc(NC(=O)c2ccc3c(c2)C(=O)c2ccccc2C3=O)c1 [Compound 6b, (9,10-Dioxo-9,10-Dihydroanthracene-2-Carboxamido)Benzoic Acid] | 274 to 274.6 | 274 | 166 | –
16 | NS(=O)(=O)c1ccc(NC(=O)c2ccc3c(c2)C(=O)c2ccccc2C3=O)cc1 [Compound 6c, 9,10-Dioxo-N-(4-Sulfamoylphenyl)-9,10-Dihydroanthracene-2-Carboxamide] | 341 to 341.3 | 68.3 | 34.9 | IC50 (HepG2 cancer cells; [1]): 62800 ± 5520 nM; IC50 (HepG2 cancer cells; [2]): 68800 ± 4170 nM; IC50 (MCF-7 cancer cells; [3]): 47000 ± 4010 nM; IC50 (MCF-7 cancer cells; [4]): 50400 ± 4730 nM; IC50 (MDA-MB-231 cancer cells; [5]): 61600 ± 5130 nM; IC50 (MDA-MB-231 cancer cells; [6]): 56300 ± 4190 nM
17 | NS(=O)(=O)c1cccc(NC(=O)c2ccc3c(c2)C(=O)c2ccccc2C3=O)c1 [Compound 6d, 9,10-Dioxo-N-(3-Sulfamoylphenyl)-9,10-Dihydroanthracene-2-Carboxamide] | 283 to 283.2 | 91.2 | 55.9 | –
18 | CC(=O)c1ccc(NC(=O)c2ccc3c(c2)C(=O)c2ccccc2C3=O)cc1 [Compound 6e, N-(4-Acetylphenyl)-9,10-Dioxo-9,10-Dihydroanthracene-2-Carboxamide] | 266 to 266.5 | – | 168 | –
19 | NS(=O)(=O)c1ccc(CCNC(=O)c2ccc3c(c2)C(=O)c2ccccc2C3=O)cc1 [Compound 6h, 9,10-Dioxo-N-(4-Sulfamoylphenethyl)-9,10-Dihydroanthracene-2-Carboxamide] | – | 61.8 | 30.1 | IC50 (HepG2 cancer cells; [1]): 54300 ± 5150 nM; IC50 (HepG2 cancer cells; [2]): 58200 ± 5450 nM; IC50 (MCF-7 cancer cells; [3]): 30300 ± 3140 nM; IC50 (MCF-7 cancer cells; [4]): 41400 ± 2220 nM; IC50 (MDA-MB-231 cancer cells; [5]): 50400 ± 4270 nM; IC50 (MDA-MB-231 cancer cells; [6]): 54200 ± 4870 nM
20 | CNS(=O)(=O)c1ccc(NC(=O)c2ccc3c(c2)C(=O)c2ccccc2C3=O)cc1 [Compound 6i, N-(4-(N-Methylsulfamoyl)Phenyl)-9,10-Dioxo-9,10-Dihydroanthracene-2-Carboxamide] | 273 to 273.8 | 172 | 110 | –
21 | CC(=O)NS(=O)(=O)c1ccc(NC(=O)c2ccc3c(c2)C(=O)c2ccccc2C3=O)cc1 [Compound 6k, N-(4-(N-Acetylsulfamoyl)Phenyl)-9,10-Dioxo-9,10-Dihydroanthracene-2-Carboxamide] | 304 to 304.3 | 170 | 140 | –
